Experimental data from patent publication US7524851B2 (Robert Bosch Gesellschaft fur Medizinische Forschung (RBMF), priority 2003, dated 2009).

How the values were obtained:
Type in all cases: cell-based, human
CD45RA T cells = assay: Annexin V/propidium iodide FACS apoptosis of stimulated CD45RA T cells; conditions: rIL-2, anti-CD3 plus anti-CD28; after 5 days
Excerpt: Isolation of primary CD4^+ T lymphocytes and lamina propria cells: Human peripheral blood mononuclear cells (PBMCs) from healthy volunteers (25-42 years of age) and patients with Crohn's disease (31-65 years of age) were isolated using Ficoll-Hypaque gradients. PBMCs were further purified using CD4 monoclonal antibodies attached to immunomagnetic beads according to the manufacturer's protocol, followed by treatment with Detachabead (Dynal; Oslo, Norway). In some cases, CD4^+ T cells were further separated by negative selection techniques using CD45RO or CD45RA monoclonal antibodies (PharMingen; Heidelberg, Germany) and immunomagnetic beads (Dynal). […]
For FACS analysis, apoptotic cells were detected by staining with annexin V and propidium iodide using the Annexin V FITC Apoptosis Detection Kit I (PharMingen) (Atreya et al., Nat. Med. 6:583-588 (2000)). […] To verify the results obtained with the annexin V/propidium iodide staining, analysis of T cells displaying DNA fragmentation was also determined by the Nicoletti technique, as described in (Nicoletti et al., J. Immunol. Methods 139:271-279 (1991)). […] Finally, cells were analyzed on a FACScan flow cytometer. […]

Rac1 = Rac1 activation assay (GTP-bound Rac1, PAK pull-down); conditions: primary T cells, 3 days
Experimental: (§1) Cell lysates were incubated with 10 μg/ml PAK-1 agarose (Rac assays) or 10 μg/mg Raf RBD agarose (Ras assay) for 60 minutes (Rac assays) or 30 minutes (Ras assays) at 4° C. Agarose beads were collected by centrifugation followed by denaturation, boiling of the samples, and SDS-PAGE analysis.

STAT-3 = assay: Rac1-bound STAT-3 (PAK pull-down, immunoblot); conditions: primary T cells, 3 days
Experimental: FIG. 7. […] Purified CD4^+ T lymphocytes were stimulated with IL-2 and antibodies to CD3 or IL-2 plus antibodies to CD3 and CD28 for 3 days. […] GTP-bound Ras (Ras-GTP) was analyzed using Raf RGD to determine Ras activation. […] Similarly, Ras was obtained using Raf RGD agarose followed by analysis of [^3H]GTP-bound Ras by scintillation counting.
as §1

Row | Compound | induction of annexin V-positive, propidium iodide-negative naive CD45RA T cells (CD45RA T cells) | CD28 costimulation induced Rac1 activation (GTP-bound Rac1) (Rac1) | Rac1-bound STAT-3 (STAT-3)
1 | Sc1ncnc2nc[nH]c12 [6-MP, 6-mercaptopurine] | significant induction | strongly suppressed | Downregulation
2 | Cn1cnc([N+](=O)[O-])c1Sc1ncnc2nc[nH]c12 [azathioprine, Azathioprine] | significant induction | strongly suppressed | reduced
